Measured values: the supplement of paper PMC11451515

How the values were obtained:
Conditions in all cases: 48 h
SEM cells [1] = assay: cell viability relative to DMSO control; higher = less cytotoxic
Method in brief: (§1)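 Library compounds in DMSO were pin-dosed in an 11-point threefold series (47 μM to 0.79 nM) onto leukemia cells in 1536-well plates (5 μl). Plates held 500 cells/well of NOMO1 or SEM or 1000 cells/well of P12-Ichikawa, each adapted for at least four passages in each medium. Luminescence was read with CellTiter-Glo One after 48 h at 37°C. Viability means the per-plate percentage relative to DMSO wells, using cell-free wells as background.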

SEM cells [2] = assay: AUC of viability dose-response curve (% viability x log10 dose units); higher = less sensitive
Method in brief: (§2)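 In 1536-well plates, leukemia cells adapted to each medium (500 or 1000 cells/well) were exposed for 48 h at 37°C to library compounds in DMSO across 11 threefold doses, 47 μM down to 0.79 nM. Viability was read by CellTiter-Glo One luminescence and normalised per plate to DMSO and cell-free wells. A four-parameter log-logistic fit over log10 doses was integrated by trapezoidal rule. This yielded the area under the curve, with over-full-viability curves scaled and quality-control failures dropped.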

P12-Ichikawa [3] = assay: as above
Method in brief: as §2

NOMO1 [4] = assay: as above
Method in brief: as §2

P12-Ichikawa [5] = assay: cell viability relative to DMSO control; higher = less cytotoxic
Method in brief: as §1

NOMO1 [6] = assay: as above
Method in brief: as §1

COC(=O)C/1=C/O[C@@H](O)[C@H]\2[C@@H]1C\C=C2CO
SEM cells [1], HPLM + 10% dialyzed FBS
Conditions	cell viability [%]
0.000781 µM	98.6
0.00234 µM	116
0.00702 µM	101
0.0211 µM	114
0.0632 µM	138
0.19 µM	114
0.569 µM	126
1.71 µM	112
5.12 µM	112
15.4 µM	104
46.1 µM	76.9

AUC of viability dose-response curve
Conditions	NOMO1 [4]	P12-Ichikawa [3]	SEM cells [2]
HPLM + 10% dialyzed FBS	472	469	465
RPMI 5 mM glucose + 10% FBS	461	466	462
RPMI 5 mM glucose + 10% dialyzed FBS	467	466	454

C=C1C[C@@]2(O)O[C@@]3(C[C@H]2C(C)C)[C@@H](C)CC[C@@H]13
cell viability [%]
Conditions	NOMO1 [6]	P12-Ichikawa [5]	SEM cells [1]
HPLM + 10% dialyzed FBS, 0.000781 µM	120	110	90.3
HPLM + 10% dialyzed FBS, 0.00234 µM	94.8	119	85.5
HPLM + 10% dialyzed FBS, 0.00702 µM	122	112	68.4
HPLM + 10% dialyzed FBS, 0.0211 µM	133	129	109
HPLM + 10% dialyzed FBS, 0.0632 µM	121	117	105
HPLM + 10% dialyzed FBS, 0.19 µM	134	123	108
HPLM + 10% dialyzed FBS, 0.569 µM	114	122	23.6
HPLM + 10% dialyzed FBS, 1.71 µM	117	112	41
HPLM + 10% dialyzed FBS, 5.12 µM	134	117	100
HPLM + 10% dialyzed FBS, 15.4 µM	132	125	108
HPLM + 10% dialyzed FBS, 46.1 µM	111	118	95.1
RPMI 5 mM glucose + 10% FBS, 0.000781 µM	108	113	117
RPMI 5 mM glucose + 10% FBS, 0.00234 µM	114	127	109
RPMI 5 mM glucose + 10% FBS, 0.00702 µM	122	114	78.5
RPMI 5 mM glucose + 10% FBS, 0.0211 µM	126	126	125
RPMI 5 mM glucose + 10% FBS, 0.0632 µM	136	129	113
RPMI 5 mM glucose + 10% FBS, 0.19 µM	119	134	122
RPMI 5 mM glucose + 10% FBS, 0.569 µM	121	119	21.8
RPMI 5 mM glucose + 10% FBS, 1.71 µM	122	123	41.5
RPMI 5 mM glucose + 10% FBS, 5.12 µM	130	122	116
RPMI 5 mM glucose + 10% FBS, 15.4 µM	119	128	108
RPMI 5 mM glucose + 10% FBS, 46.1 µM	135	132	111
RPMI 5 mM glucose + 10% dialyzed FBS, 0.000781 µM	114	112	81.8
RPMI 5 mM glucose + 10% dialyzed FBS, 0.00234 µM	125	109	110
RPMI 5 mM glucose + 10% dialyzed FBS, 0.00702 µM	118	116	77.2
RPMI 5 mM glucose + 10% dialyzed FBS, 0.0211 µM	109	117	97.3
RPMI 5 mM glucose + 10% dialyzed FBS, 0.0632 µM	117	122	96
RPMI 5 mM glucose + 10% dialyzed FBS, 0.19 µM	122	135	104
RPMI 5 mM glucose + 10% dialyzed FBS, 0.569 µM	98.1	113	21.5
RPMI 5 mM glucose + 10% dialyzed FBS, 1.71 µM	102	125	29.9
RPMI 5 mM glucose + 10% dialyzed FBS, 5.12 µM	121	121	105
RPMI 5 mM glucose + 10% dialyzed FBS, 15.4 µM	102	127	111
RPMI 5 mM glucose + 10% dialyzed FBS, 46.1 µM	124	128	93.2

AUC of viability dose-response curve
Conditions	HPLM + 10% dialyzed FBS	RPMI 5 mM glucose + 10% FBS	RPMI 5 mM glucose + 10% dialyzed FBS
NOMO1 [4]	466	451	465
P12-Ichikawa [3]	469	460	449

CC1(C)S[C@H]2[C@H](NC(=O)[C@@H](N)C3=CC=C(O)C=C3)C(=O)[N@]2[C@H]1C(O)=O
AUC of viability dose-response curve
Conditions	NOMO1 [4]	P12-Ichikawa [3]	SEM cells [2]
HPLM + 10% dialyzed FBS	383	394	456
RPMI 5 mM glucose + 10% FBS	394	394	441
RPMI 5 mM glucose + 10% dialyzed FBS	393	383	461

CCC1=C2C=C(OC(=O)N3CCC(CC3)N4CCCCC4)C=CC2=NC\5=C1CN6C(=O)\C7=C(/C=C56)[C@@](O)(CC)C(=O)OC7
SEM cells [1], RPMI 5 mM glucose + 10% FBS
Conditions	cell viability [%]
0.000781 µM	110
0.00234 µM	127
0.00702 µM	104
0.0211 µM	106
0.0632 µM	49.5
0.19 µM	104
0.569 µM	107
1.71 µM	65.2
5.12 µM	15.4
15.4 µM	13.1
46.1 µM	9.69

AUC of viability dose-response curve
Conditions	NOMO1 [4]	P12-Ichikawa [3]	SEM cells [2]
HPLM + 10% dialyzed FBS	380	324	366
RPMI 5 mM glucose + 10% FBS	380	313	356
RPMI 5 mM glucose + 10% dialyzed FBS	380	326	353

CCC(c1ccc(O)cc1)C(CC)c1ccc(O)cc1 (configuration not stated)
AUC of viability dose-response curve
Conditions	NOMO1 [4]	P12-Ichikawa [3]	SEM cells [2]
HPLM + 10% dialyzed FBS	428	452	459
RPMI 5 mM glucose + 10% FBS	448	464	457
RPMI 5 mM glucose + 10% dialyzed FBS	463	466	466

CCC(C)N(C)C(=O)c1cc2ccccc2c(-c2ccccc2Cl)n1 (configuration not stated)
AUC of viability dose-response curve
Conditions	NOMO1 [4]	P12-Ichikawa [3]	SEM cells [2]
HPLM + 10% dialyzed FBS	452	462	461
RPMI 5 mM glucose + 10% FBS	473	471	460
RPMI 5 mM glucose + 10% dialyzed FBS	453	463	464
